# Patent publication US20060166872A1, “Fp receptor antagonists or pgf2 alpha antagonists for treating menorrhagia” (priority 2002, published 2006)
# Entries after “also recorded” stand apart in the source; their conditions may differ.
# What was measured:
# [1] = tested on: FP receptor; conditions: cited from earlier work
# [2] = target: prostaglandin receptor EP2 (Homo sapiens, UniProt P43116); conditions: 10 μM; cited from earlier work
# [3] = target: prostaglandin receptor EP4 (Homo sapiens, UniProt P35408); conditions: 10 μM; cited from earlier work
# [4] = target: T1, prostaglandin receptor DP (Homo sapiens, UniProt Q13258); conditions: 10 μM; cited from earlier work
# T1 sequence (Q13258 1-359): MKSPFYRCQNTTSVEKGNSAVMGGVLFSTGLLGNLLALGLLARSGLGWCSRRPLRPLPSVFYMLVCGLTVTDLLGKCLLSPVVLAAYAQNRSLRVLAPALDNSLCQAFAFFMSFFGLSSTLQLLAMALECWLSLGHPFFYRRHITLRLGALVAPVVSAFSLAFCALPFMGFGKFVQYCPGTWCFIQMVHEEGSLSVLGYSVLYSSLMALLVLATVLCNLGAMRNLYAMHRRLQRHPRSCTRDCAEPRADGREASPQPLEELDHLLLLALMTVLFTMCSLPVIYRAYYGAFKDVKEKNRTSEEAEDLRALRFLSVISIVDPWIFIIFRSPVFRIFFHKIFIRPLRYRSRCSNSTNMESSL
# [5] = tested on: prostaglandin receptor TP; conditions: 10 μM; cited from earlier work
# [6] = tested on: human endometrium; test: Total inositol phosphate (InsP) assay in human endometrium; type: cell-based
# Experimental: (§1) PGF2α stimulation of total InsP production was as described (21). Briefly, tissue samples or Ishikawa cells were incubated with inositol free DMEM containing 1% dialyzed heat-inactivated FCS and 0.5 μCi/well myo-[^3H]inositol (Amersham Pharmacia Biotech) for 48 hours. Medium was removed, and cells washed with 1 ml buffer (140 mM NaCl, 20 mM HEPES, 4 mM KCl, 8 mM glucose, 1 mM MgCl2, 1 mM CaCl2, 1 mg/ml bovine serum albumin) containing 10 mM LiCl. Cells were then incubated for 1 hour at 37° C. in 1 ml buffer with or without inhibitors. Following incubation agonist was added at the required concentration and cells incubated for 1 hour. Reactions were terminated by the removal of agonist and the addition of 500 μl ice cold 10 mM formic acid, which was incubated for 30 minutes at 4° C. Total [^3H] inositol phosphates was separated from the formic acid cell extracts on AG 1-X8 anion exchange resin (Bio-Rad) and eluted with a 1 M ammonium formate/0.1 M formic acid solution. The associated radioactivity was determined by liquid scintillation counting and plotted relative to protein concentrations determined using the modified Lowry method.
# [7] = tested on: Ishikawa cells; test: PGF2α-induced ERK phosphorylation in Ishikawa cells; type: cell-based, human; conditions: 100 nM, 10 min
# Experimental: PGF2α-induced ERK phosphorylation in Ishikawa cells. PGF2α 100 nM was incubated for 10 and 30 min. U73122 2 μM was pre-incubated for 60 min before treatment with PGF2α.
# [8] = tested on: HT-29; conditions: HT-29 human colon adenocarcinoma cell line; cited from earlier work
# [9] = tested on: HCT-8; conditions: HCT-8 human colon adenocarcinoma cell line; cited from earlier work
# [10] = tested on: Ishikawa cells; test: Total inositol phosphate (InsP) assay in Ishikawa cells; type: cell-based, human; conditions: PGF2α 100 nM
# Experimental: as §1
# [11] = tested on: Ishikawa cells; test: Proliferation assay, BrdU incorporation ELISA; type: cell-based, human; conditions: for basal proliferation (BrdU incorporation): no PGF2α
# Experimental: Proliferation of Ishikawa cells was determined using a BrdU incorporation ELISA (Roche Diagnostics GmbH, Mannheim, Germany). Briefly, Ishikawa cells were seeded at 5×10^3 cells per well in a 96-well plate and allowed to adhere overnight. Cells were next starved for 24 hr with indomethacin 1.5 μg/ml before 24 h PGF2α treatment (1 nM-1 μM) in serum-free medium containing indomethacin. Inhibitors were added to cells for 60 min before PGF2α with the control well receiving the same concentration of vehicle. Following 24 h treatment, cells were labelled with BrdU for 4 h, then fixed and assayed for BrdU incorporation using standard immunohistochemical techniques. Results were plotted as percentages of untreated cells.
# [12] = target: T2, PGES (Homo sapiens, UniProt O14684); conditions: read-out: IC50 for inhibition of PGES activity; cited from earlier work
# T2 sequence (O14684 1-152): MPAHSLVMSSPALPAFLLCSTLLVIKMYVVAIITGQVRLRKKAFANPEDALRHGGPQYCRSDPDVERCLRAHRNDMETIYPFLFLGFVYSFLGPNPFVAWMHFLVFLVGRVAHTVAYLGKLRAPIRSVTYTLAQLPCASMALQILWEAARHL
# Sequence of prostaglandin receptor EP2 (P43116 whole entry): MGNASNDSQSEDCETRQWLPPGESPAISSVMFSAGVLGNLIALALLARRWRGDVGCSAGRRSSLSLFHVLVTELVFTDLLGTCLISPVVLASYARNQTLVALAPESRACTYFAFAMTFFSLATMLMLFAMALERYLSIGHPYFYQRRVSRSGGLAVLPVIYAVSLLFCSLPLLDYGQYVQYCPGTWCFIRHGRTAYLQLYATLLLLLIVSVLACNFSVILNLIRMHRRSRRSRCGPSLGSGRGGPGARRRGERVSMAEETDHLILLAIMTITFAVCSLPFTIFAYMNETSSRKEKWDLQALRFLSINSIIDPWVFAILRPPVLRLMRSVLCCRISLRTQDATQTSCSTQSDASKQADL
# Sequence of prostaglandin receptor EP4 (P35408 whole entry): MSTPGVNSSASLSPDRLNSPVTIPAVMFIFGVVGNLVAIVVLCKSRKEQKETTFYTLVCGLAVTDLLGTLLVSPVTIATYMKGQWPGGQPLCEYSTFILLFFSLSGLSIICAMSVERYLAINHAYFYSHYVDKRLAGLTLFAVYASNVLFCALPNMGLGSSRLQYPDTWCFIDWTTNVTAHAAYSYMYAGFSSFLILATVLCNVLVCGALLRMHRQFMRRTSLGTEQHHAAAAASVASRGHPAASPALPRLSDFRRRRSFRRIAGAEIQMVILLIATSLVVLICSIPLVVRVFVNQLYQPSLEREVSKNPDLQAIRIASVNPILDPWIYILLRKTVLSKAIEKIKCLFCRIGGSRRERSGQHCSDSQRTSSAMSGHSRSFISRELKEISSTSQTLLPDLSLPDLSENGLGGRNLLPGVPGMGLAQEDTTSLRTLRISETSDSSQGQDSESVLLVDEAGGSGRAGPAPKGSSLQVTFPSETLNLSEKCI
compound,measurement,setting,value
CCCCNC(=O)NS(=O)(=O)c1ccc(C)cc1 [tolbutamide],"FP (PGF2α) receptor antagonist activity, in words",[1],very weak antagonists
"O=C(O)CCC/C=C\C[C@@H]1[C@@H](/C=C/[C@H](O)C2Cc3ccccc3C2)[C@@H](F)C[C@@H]1O [AL-8810, (5Z, 13E)-(9S,11S,15R)-9,15-dihydroxy-11-fluoro-15-(2-indanyl)-16, 17, 18, 19, 20-pentanor-5,13-prostadienoic acid]","FP (PGF2α) receptor agonist activity, in words",[1],weak partial agonist
same,"FP (PGF2α) receptor antagonist activity, in words",[1],highly selective antagonist; also recorded: micromolar potency
same,inhibition of functional responses of EP2 receptor,[2],not to significantly inhibit
same,inhibition of functional responses of EP4 receptor,[3],not to significantly inhibit
same,inhibition of functional responses of DP receptor,[4],not to significantly inhibit
same,inhibition of functional responses of TP receptor,[5],not to significantly inhibit
Cc1ccc(S(=O)(=O)NC(=O)NN2CCCCCC2)cc1 [tolazamide],"FP (PGF2α) receptor antagonist activity, in words",[1],very weak antagonists
prostaglandin F2α [PGF2α],concentration giving maximal InsP mobilisation,[6],100 nM
same,total InsP production following treatment,[6],concentration-dependent increase
same,increase in phosphorylated ERK intensity compared to native ERK,[7],6.6±0.7 fold
same,proliferation,[8],lack of proliferation
same,proliferation,[9],lack of proliferation
same,maximum total InsP,[10],29 cpm/mg protein
same,BrdU incorporation (percentage of untreated cells),"[11]; PGF2α 100 nM (maximal), 24 h, Ishikawa cells",136.3±7.48%
CSc1ccc(/C=C2/C(C)=C(CC(=O)O)c3cc(F)ccc32)cc1 [sulindac sulphide],IC50,[12],80 µM
COc1cccc(-c2cc(=O)c3ccccc3o2)c1N [PD98059],basal proliferation (BrdU incorporation),[11]; PD98059 50 μM pre-treatment,84.0±5.8%
COc1ccc2c(c1)CC[C@@H]1[C@@H]2CC[C@]2(C)[C@@H](NCCCCCCN3C(=O)C=CC3=O)CC[C@@H]12 [U73122],effect on PGF2α-induced InsP mobilisation,"[6]; pre-treatment with U73122 2 μM, PGF2α 100 nM",inhibited
same,basal proliferation (BrdU incorporation),[11]; U73122 2 μM pre-incubation,93.9±1.9%
CCCCC/C=C\C\C=C/C=C/C=C/[C@@H](SC[C@H](NC(=O)CC[C@H](N)C(=O)O)C(=O)NCC(=O)O)[C@@H](O)CCCC(=O)O [leukotriene C4],IC50,[12],5 µM
"CCCCC(F)[C@H](O)/C=C/[C@H]1CC[C@H](O)[C@@H]1C/C=C\CCCC(=O)O (stereo partly drawn) [AL-3138, 11-deoxy-16-fluoro PGF2α]","FP (PGF2α) receptor agonist activity, in words",[1],weak partial agonist; also recorded: partial agonist of low efficacy
same,"FP (PGF2α) receptor antagonist activity, in words",[1],highly selective antagonist
